One assay deals with Beta-glucosidase A (Caldicellulosiruptor saccharolyticus, UniProt P10482). The assay is described as follows: Inhibitory activity against beta-Glucosidase from Caldocellum saccharolyticum.
The target in assay [1] is T1, Sucrase-isomaltase, intestinal (Rattus norvegicus, UniProt P23739). The experiment in a line: Inhibition of rat intestinal maltase using disaccharide.
The next assay concerns the target T2, Alpha-glucosidase (Oryza sativa Japonica Group, UniProt Q9LGC6).
T2 sequence (Q9LGC6 whole entry): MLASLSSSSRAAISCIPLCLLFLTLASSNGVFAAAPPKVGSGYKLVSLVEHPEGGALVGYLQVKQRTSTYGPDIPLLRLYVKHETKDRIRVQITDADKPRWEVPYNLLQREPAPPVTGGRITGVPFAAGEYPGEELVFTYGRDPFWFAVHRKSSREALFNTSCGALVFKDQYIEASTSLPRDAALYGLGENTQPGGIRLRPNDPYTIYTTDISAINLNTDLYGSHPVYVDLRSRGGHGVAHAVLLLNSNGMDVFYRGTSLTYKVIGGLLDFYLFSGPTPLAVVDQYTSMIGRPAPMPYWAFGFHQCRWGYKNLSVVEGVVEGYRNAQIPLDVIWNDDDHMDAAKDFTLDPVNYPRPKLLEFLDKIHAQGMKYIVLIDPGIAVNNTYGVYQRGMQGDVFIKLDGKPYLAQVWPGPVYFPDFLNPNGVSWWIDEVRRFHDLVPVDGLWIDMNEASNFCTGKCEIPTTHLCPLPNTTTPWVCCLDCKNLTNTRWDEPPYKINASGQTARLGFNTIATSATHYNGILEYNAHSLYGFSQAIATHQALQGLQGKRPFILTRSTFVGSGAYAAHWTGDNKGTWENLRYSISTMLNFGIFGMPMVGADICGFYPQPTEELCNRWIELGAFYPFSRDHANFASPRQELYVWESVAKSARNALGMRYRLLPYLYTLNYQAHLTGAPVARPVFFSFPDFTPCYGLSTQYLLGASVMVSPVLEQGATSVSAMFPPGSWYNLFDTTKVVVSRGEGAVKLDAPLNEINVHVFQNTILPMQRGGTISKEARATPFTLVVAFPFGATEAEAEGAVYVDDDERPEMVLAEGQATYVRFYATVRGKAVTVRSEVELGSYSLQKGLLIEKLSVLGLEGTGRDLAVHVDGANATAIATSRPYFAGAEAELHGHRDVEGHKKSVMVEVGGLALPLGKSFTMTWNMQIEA
The assay is described as follows: Inhibitory activity against alpha-Glucosidase from rice.

The target in assay [2] is T1, Sucrase-isomaltase, intestinal. The assay is described as follows: Inhibition of rat intestinal isomaltase using disaccharide.
Another assay has as its system Saccharomyces cerevisiae. The assay is described as follows: Inhibitory activity against alpha-Glucosidase from Yeast at 1000 uM.
Assay [3] addresses T1, Sucrase-isomaltase, intestinal. The assay is described as follows: Inhibition of rat intestinal sucrase using disaccharide.
Assay [4] is described as follows: Inhibitory activity against alpha-Glucosidase from Yeast. Also on record: species or system Saccharomyces cerevisiae.
Assay [5] deals with Beta-glucosidase A (Caldicellulosiruptor saccharolyticus) (UniProt P10482). The assay is described as follows: Inhibitory activity against beta-Glucosidase from Caldocellum saccharolyticum at 1000 uM.

The structures appear in SMILES notation.

Consider twelve compounds from ChEMBL document CHEMBL1137067, “Alpha-1-C-alkyl-1-deoxynojirimycin derivatives as potent and selective inhibitors of intestinal isomaltase: remarkable effect of the alkyl chain length on glycosidase inhibitory profile” (Bioorg Med Chem Lett, 2004).

T1 sequence (P23739 1-1013 limits assumed): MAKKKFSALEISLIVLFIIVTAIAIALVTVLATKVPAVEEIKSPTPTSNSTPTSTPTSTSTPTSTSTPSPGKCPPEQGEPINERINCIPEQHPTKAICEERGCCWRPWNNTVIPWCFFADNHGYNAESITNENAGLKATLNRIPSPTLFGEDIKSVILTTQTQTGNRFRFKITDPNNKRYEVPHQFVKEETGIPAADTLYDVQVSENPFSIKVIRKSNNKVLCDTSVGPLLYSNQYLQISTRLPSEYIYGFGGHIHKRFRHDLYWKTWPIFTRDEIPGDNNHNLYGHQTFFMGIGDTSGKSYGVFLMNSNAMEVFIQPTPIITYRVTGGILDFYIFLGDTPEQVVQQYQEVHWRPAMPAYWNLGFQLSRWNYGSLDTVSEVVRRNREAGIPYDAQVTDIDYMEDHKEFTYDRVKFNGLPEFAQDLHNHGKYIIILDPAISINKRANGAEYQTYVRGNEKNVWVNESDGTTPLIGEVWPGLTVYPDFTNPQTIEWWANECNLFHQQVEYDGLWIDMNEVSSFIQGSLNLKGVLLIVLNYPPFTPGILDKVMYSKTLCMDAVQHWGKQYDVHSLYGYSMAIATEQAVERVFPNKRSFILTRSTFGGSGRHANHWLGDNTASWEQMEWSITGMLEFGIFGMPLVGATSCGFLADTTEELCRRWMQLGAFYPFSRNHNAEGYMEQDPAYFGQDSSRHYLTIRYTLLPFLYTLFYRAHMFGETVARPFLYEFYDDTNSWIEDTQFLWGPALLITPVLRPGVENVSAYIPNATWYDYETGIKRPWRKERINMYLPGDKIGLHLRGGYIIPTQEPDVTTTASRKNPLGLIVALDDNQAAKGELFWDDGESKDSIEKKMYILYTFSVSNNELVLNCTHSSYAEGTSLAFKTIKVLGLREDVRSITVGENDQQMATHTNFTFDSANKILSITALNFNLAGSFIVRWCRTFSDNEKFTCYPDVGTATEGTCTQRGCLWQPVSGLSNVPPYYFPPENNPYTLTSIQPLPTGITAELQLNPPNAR
T1 sequence (P23739 1014-1841 limits assumed): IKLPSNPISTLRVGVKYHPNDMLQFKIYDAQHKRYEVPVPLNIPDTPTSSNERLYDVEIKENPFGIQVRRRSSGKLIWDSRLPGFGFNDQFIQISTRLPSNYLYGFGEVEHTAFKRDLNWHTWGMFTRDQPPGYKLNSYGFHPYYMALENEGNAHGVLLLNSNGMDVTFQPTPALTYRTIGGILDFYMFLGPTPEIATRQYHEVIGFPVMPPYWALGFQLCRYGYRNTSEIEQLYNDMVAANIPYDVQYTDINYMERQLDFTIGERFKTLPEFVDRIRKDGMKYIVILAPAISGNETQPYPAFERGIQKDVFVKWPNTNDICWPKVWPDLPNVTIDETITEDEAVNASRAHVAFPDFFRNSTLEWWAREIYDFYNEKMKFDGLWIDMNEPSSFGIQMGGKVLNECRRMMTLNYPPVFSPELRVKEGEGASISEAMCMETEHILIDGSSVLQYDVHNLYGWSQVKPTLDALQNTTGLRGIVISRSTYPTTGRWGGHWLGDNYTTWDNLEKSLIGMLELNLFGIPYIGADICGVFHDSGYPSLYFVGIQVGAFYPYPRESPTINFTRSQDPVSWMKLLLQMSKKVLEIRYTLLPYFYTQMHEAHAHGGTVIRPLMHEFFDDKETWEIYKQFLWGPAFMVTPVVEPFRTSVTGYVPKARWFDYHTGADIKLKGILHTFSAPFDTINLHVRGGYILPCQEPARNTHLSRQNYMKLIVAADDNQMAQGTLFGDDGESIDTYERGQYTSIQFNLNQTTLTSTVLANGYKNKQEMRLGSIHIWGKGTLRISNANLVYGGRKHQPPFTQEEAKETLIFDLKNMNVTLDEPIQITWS
Chain of Beta-glucosidase A (P10482 whole entry): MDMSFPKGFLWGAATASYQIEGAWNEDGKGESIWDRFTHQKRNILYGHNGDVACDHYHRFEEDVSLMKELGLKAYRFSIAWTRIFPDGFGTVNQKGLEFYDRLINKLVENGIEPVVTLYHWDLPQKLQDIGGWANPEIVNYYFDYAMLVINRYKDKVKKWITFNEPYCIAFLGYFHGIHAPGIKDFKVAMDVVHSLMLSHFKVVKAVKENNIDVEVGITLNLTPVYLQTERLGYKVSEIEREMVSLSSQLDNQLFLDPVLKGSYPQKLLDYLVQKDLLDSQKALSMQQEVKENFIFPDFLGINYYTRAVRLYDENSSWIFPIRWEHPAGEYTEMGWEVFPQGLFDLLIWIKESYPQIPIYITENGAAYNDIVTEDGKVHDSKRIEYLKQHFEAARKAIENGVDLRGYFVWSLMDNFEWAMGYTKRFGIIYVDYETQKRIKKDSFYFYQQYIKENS
Chain of Beta-glucosidase A (Caldicellulosiruptor saccharolyticus) (P10482 whole entry): as above

A word on the IC50: it is the concentration that inhibits the measured activity by half. Higher therefore signals a need for much substance. As a reminder, the inhibition is the change of the read-out against control, counted positive when it falls. A higher inhibition goes with a strong effect. With `CCCCCCCCN1CC(O)C(O)C(O)C1CO` (stereo not given), the IC50 against Beta-glucosidase A was found to be 160 µM; in assay [1], 1.5 µM; against Alpha-glucosidase, 80 nM; in assay [2], 280 nM; in assay [3], 660 nM. In the assay on Saccharomyces cerevisiae, this compound registered an inhibition below 50%.

As for `CCCN1CC(O)C(O)C(O)C1CO` (stereo not given), the IC50 came to 100 µM against Beta-glucosidase A; 7 µM in assay [1]; 2000 nM at Alpha-glucosidase; 1400 nM in assay [2]; 2000 nM in assay [3]. This compound returned an inhibition with Saccharomyces cerevisiae below 50%.

Consider `CCCCCCC1NC(CO)C(O)C(O)C1O` (stereo not given), for which the IC50 in assay [1] is 3.5 µM; at Alpha-glucosidase, 800 nM; in assay [4], 52 µM; in assay [2], 310 nM; in assay [3] it was 1200 nM. Moreover, in assay [5], the inhibition is below 50%.

With `CCCC1NC(CO)C(O)C(O)C1O` (stereo not given), the IC50 in assay [1] is 43 µM; at Alpha-glucosidase it was 15000 nM; in assay [4], 630 µM; in assay [2] it was 530 nM; in assay [3], 39000 nM.

Compound `OC[C@H]1NC[C@H](O)[C@@H](O)[C@@H]1O` [DUVOGLUSTAT] showed an IC50 in assay [4] of 190 µM.

On to `CCCCCCCCCN1CC(O)C(O)C(O)C1CO` (stereo not given), for which the IC50 was determined as 1.3 µM in assay [1] and 80 nM against Alpha-glucosidase. In the assay with Saccharomyces cerevisiae, this compound had an inhibition below 50%.

`CCCC[C@@H]1N[C@@H](CO)[C@@H](O)[C@H](O)[C@@H]1O`: the IC50 in assay [1] is 210 µM; at Alpha-glucosidase, 61000 nM; in assay [2], 115000 nM; in assay [3] it was 155000 nM. Also, the inhibition (with Saccharomyces cerevisiae; in assay [5]) was below 50% throughout.

Consider `CCCC[C@H]1N[C@@H](CO)[C@@H](O)[C@H](O)[C@@H]1O`, for which the IC50 in assay [1] was 12 µM; against Alpha-glucosidase, 11000 nM; in assay [4] it was 465 µM; in assay [2] it was 150 nM; in assay [3] it was 3600 nM. This compound also came in with an inhibition in assay [5] below 50%.

Take `CCCCCCN1CC(O)C(O)C(O)C1CO` (stereo not given): the concentration for half-maximal inhibition (IC50) at Beta-glucosidase A amounted to 450 µM; in assay [1], 3.7 µM; at Alpha-glucosidase it was 700 nM; in assay [2] it was 450 nM; in assay [3] it was 450 nM. Besides, the inhibition in the assay on Saccharomyces cerevisiae is below 50%.

The compound `CCCCN1C[C@H](O)[C@@H](O)[C@H](O)[C@H]1CO` registered an IC50 on Alpha-glucosidase of 420 nM. For the same compound, the inhibition (with Saccharomyces cerevisiae; in assay [5]) was below 50% in each case.

For the compound `CCCCCCCCC1NC(CO)C(O)C(O)C1O` (stereo not given), the IC50 worked out at 110 µM against Beta-glucosidase A; 1.9 µM in assay [1]; 590 nM against Alpha-glucosidase; 25 µM in assay [4]; 90 nM in assay [2]; 1500 nM in assay [3].

With `CCCCCCCCCC1NC(CO)C(O)C(O)C1O` (stereo not given), the IC50 on Beta-glucosidase A is 80 µM; in assay [1], 4 µM; against Alpha-glucosidase, 1500 nM; in assay [4], 56 µM; in assay [2], 3.5 nM; in assay [3], 2500 nM.
